Reference: PMC6089501 (Journal of Medicinal Chemistry, 2018)
Converted amounts (≈) assume the structure as drawn. “And” between values parts separate entries of the source, which are not always exact repeats. Equal values may be shown once. Read-outs that look alike come from different tables or passages of the source.

Assays:
M. tuberculosis H37Rv [1] = assay: microbe, parasite or virus in culture; type: cell-based, Mycobacterium tuberculosis; details: for MIC90 / IC90 / MIC: Mycobacterium tuberculosis, H37RV; for MIC90: read-out: MIC (MIC90); for IC90: read-out: TB-IC90_OD GEOM_MEAN
[2] = for CL mouse MEAN / in vitro mouse Clint: microsomes
[3] = test system: Madin Darby Canine Kidney (MDCK); details: for P-glycoprotein (P-gp) efflux (in words) / permeability (in words): MDCK-MDR1; for P-gp Efflux B→ A/A → B: dog, MDCK
Vero cells [4] = assay: cells; details: Chlorocebus sabaeus, read-out: VERO IC50
Procedure: (§1) Compounds were solubilized in DMSO and assayed as a 10-point 3-fold serial dilution. Compounds were incubated with cells for 2 days at 37 °C, 5% CO2. CellTiter-Glo Reagent (Promega) was added and relative luminescent units (RLU) measured.

physchem [5] = assay: physchem
in vitro = details: dog, MDCK-MDR1
physchem [6] = assay: physchem; remark: listed apart in the source
Procedure: Samples are stirred for 20 h and filtered through a 0.7 μm GF filter. The filtrate was analyzed by HPLC assay for concentration against DMSO standard curve.[40]

physchem [7] = details: pH 2.4
Vero cells [8] = details: read-out: VERO IC50
Procedure: as §1

physchem [9] = details: aqueous with cosolvent or surfactant or cyclodextrin, kinetic from dmso stock
in vivo = details: female, C57 Black, mouse, po, 10 mg/kg
Procedure: (§2) Test compound was dosed as a bolus solution intravenously at 3 mg of free base/kilogram (dose volume 5 mL/kg; dose vehicle Saline or 10% DMSO; 40% PEG400; 50% saline) to female C57 Black (n = 3) or dosed orally by gavage as a solution at 10 mg of free base/kilogram (dose volume 10 mL/kg; dose vehicle 10% DMSO; 40% PEG400; 50% distilled water) to female C57 Black (n = 3/dose level). Blood samples were taken from each mouse tail vein at predetermined time points postdose, mixed with two volumes of distilled water, and stored frozen until UPLC/MS/MS analysis. Pharmacokinetic parameters were derived from the blood concentration time curve using PK Solutions software v 2.0 (Summit Research Services, USA).

[10] = female, C57 Black, mouse, in vivo, iv, 3 mg/kg
Procedure: as §2

M. tuberculosis H37Rv [11] = test system: M. tuberculosis H37Rv; design: species or system Mycobacterium tuberculosis; details: in vivo

SMILES	MIC90 (M. tuberculosis H37Rv [1]) [µM]	IC90 (M. tuberculosis H37Rv [1]) [µM]	Cli mouse ([2]; female, CD1, mouse, pH 7.4) [mL.min^–1.g^–1]	CL mouse MEAN [2] [mL/min/g]	IC50 (Vero cells [4]) [µM]	chromatographic logD (physchem [5])	IC50 (Vero cells [8]) [µM]	solubility kinetic (physchem [9]) [µM]	further results
NC(=O)c1sc(CN2CCOCC2)cc1OCCc1ccccc1 [Compound 18, 5-(Morpholinomethyl)-3-(2-phenylethoxy)thiophene-2-carboxamide]	> 20	> 20	3	3.219	> 100	1.71			antitubercular whole cell activity (in words) (M. tuberculosis H37Rv [1]): not active; P-glycoprotein (P-gp) efflux (in words) [3]: no likely P-glycoprotein (P-gp) efflux issues; permeability (in words) [3]: good permeability; P-gp Efflux B→ A/A → B [3]: 0.8; Papp A→B (in vitro): 62 ×10⁻⁶ cm/s; Papp B→A (in vitro): 53 ×10⁻⁶ cm/s; solubility (physchem [6]; pH 2): 700 µg/mL (≈ 2020 µM); solubility (physchem [6]; pH 7.4): 300 µg/mL (≈ 866 µM); solubility (physchem [7]): 1700 µg/mL (≈ 4910 µM)
c1ccc(CCOc2csc(N3CCOCC3)c2)cc1 [Compound 19, 4-[4-(2-Phenylethoxy)-2-thienyl]morpholine]	> 20	> 20	37	37.17	68	1.96	61.7	174 (≈ 50.2 µg/mL)	
CC(=O)c1sc(N2CCOCC2)cc1OCCc1ccccc1 [Compound 20, 1-[5-Morpholino-3-(2-phenylethoxy)-2-thienyl]ethanone]	0.42 (≈ 0.139 µg/mL)	0.424	41	41.42	84	2.78	82.2		solubility (physchem [6]; pH 2): 600 µg/mL (≈ 1810 µM); solubility (physchem [6]; pH 7.4): 30 µg/mL (≈ 90.5 µM); solubility (physchem [7]): 400 µg/mL (≈ 1210 µM)
O=C(NC1CCC1)c1sc(N2CCOCC2)cc1OCCc1ccccc1 [Compound 24, N-Cyclobutyl-5-morpholino-3-phenethoxythiophene-2-carboxamide]	> 20	> 20	0.5	0.5	24	3.21	24	175 (≈ 67.6 µg/mL)	
CON(C)C(=O)c1sc(N2CCOCC2)cc1OCCc1ccccc1 [Compound 25, N-Methoxy-N-methyl-5-morpholino-3-phenethoxythiophene-2-carboxamide]	1.8 (≈ 0.678 µg/mL)	1.7	0.5	0.5					MIC (M. tuberculosis H37Rv [1]; read-out: H37Rv MIC): 0.64 µg/mL; in vitro mouse Clint [2]: <0.5 mL/min/g; AUC (in vivo): 86.7 ng·h/mL
NC(=O)c1sc(-c2ccncc2)cc1OCCc1ccccc1 [Compound 35, 3-(2-Phenylethoxy)-5-(4-pyridyl)thiophene-2-carboxamide]	5.3 (≈ 1.72 µg/mL)	5.08	41	40.84	5.9	1.9	5.62	219 (≈ 71 µg/mL)	MIC (M. tuberculosis H37Rv [1]; read-out: MIC WT): 5.8 µM
CC1(COc2cc(N3CCOCC3)sc2C(N)=O)COC1 [Compound 46, 3-((3-Methyloxetan-3-yl)methoxy)-5-morpholinothiophene-2-carboxamide]	> 20		2.1	2.051	> 100	0.707			antitubercular whole cell activity (in words) (M. tuberculosis H37Rv [1]): no measurable MIC activity; MIC (M. tuberculosis H37Rv [1]; read-out: H37Rv MIC): > 6.2 µg/mL; scaled Clpre ([2]; female, CD1, mouse, pH 7.4): 56 mL/min/kg; in vitro mouse Clint [2]: 2.1 mL/min/g; CLB [10]: 31 mL/min/kg; T1/2 [10]: 42 min; P-glycoprotein (P-gp) efflux (in words) [3]: no likely P-glycoprotein (P-gp) efflux issues; permeability (in words) [3]: good permeability; P-gp Efflux B→ A/A → B [3]: 2; bioavailability (in vivo): 38%; Papp A→B (in vitro): 19 ×10⁻⁶ cm/s; Papp B→A (in vitro): 35 ×10⁻⁶ cm/s
COc1c(N2C[C@@H]3CCCN[C@@H]3C2)c(F)cc2c(=O)c(C(=O)O)cn(C3CC3)c12 [Moxifloxacin]									log CFUs per mouse (lungs), individual mice (M. tuberculosis H37Rv [11]): 3.8 log CFU (2×) and 4.4 log CFU and 4.0 log CFU and 3.9 log CFU; log CFUs per mouse (lungs), mean (M. tuberculosis H37Rv [11]): 4.0 log CFU; reduction of CFU lung number with respect to untreated mice (M. tuberculosis H37Rv [11]): 2.8 logs
